# Data from BindingDB's records for doi:10.1016/j.ejmech.2018.06.047 (University of Oulu, 2018).
# Assay: Inhibition of ARTD10 (unknown origin)-induced cell death expressed in human HeLa cells after 10 days by methylene blue staining based colony formation assay
row,SMILES,IC50
1,NC(=O)c1ccc(OCc2ccccc2F)cc1,2 µM
2,NC(=O)c1ccc(Oc2ccc(C=O)cc2)cc1,1 µM
